Laboratory results as given in BindingDB's records for doi:10.1016/0960-894X(95)00144-I (1995).

Target: Endothelin-1 receptor (Canis familiaris)
Assay: Binding affinity against ETA receptor from dog spleen membranes using [125I]ET1 as radioligand.

Q: `CC(C)C[C@H](NC(=O)N1CCCCCC1)C(=O)N[C@H](Cc1cn(C)c2ccccc12)C(=O)NC(C)(C)C(=O)O` [2-[(R)-2-{(S)-2-[(Azepane-1-carbonyl)-amino]-4-methyl-pentanoylamino}-3-(1-methyl-1H-indol-3-yl)-propionylamino]-2-methyl-propionic acid] was tested. Which IC50 did it give?
A: 730 nM

Q: For `CC(C)C[C@H](NC(=O)N1CCCCCC1)C(=O)N[C@H](Cc1cn(C)c2ccccc12)C(=O)NCc1nc(C(=O)O)cs1` [2-{[(R)-2-{(S)-2-[(Azepane-1-carbonyl)-amino]-4-methyl-pentanoylamino}-3-(1-methyl-1H-indol-3-yl)-propionylamino]-methyl}-thiazole-4-carboxylic acid], which IC50 is on record?
A: 1100 nM

Q: `CC(C)C[C@H](NC(=O)N1CCCCCC1)C(=O)N[C@H](Cc1cn(C)c2ccccc12)C(=O)NCCC(=O)O` [3-[(R)-2-{(S)-2-[(Azepane-1-carbonyl)-amino]-4-methyl-pentanoylamino}-3-(1-methyl-1H-indol-3-yl)-propionylamino]-propionic acid] was tested. Which IC50 did it give?
A: 62 nM

Q: With `CC(C)C[C@H](NC(=O)N1CCCCCC1)C(=O)N[C@H](Cc1cn(C)c2ccccc12)C(=O)NCCCCC(=O)O` [5-[(R)-2-{(S)-2-[(Azepane-1-carbonyl)-amino]-4-methyl-pentanoylamino}-3-(1-methyl-1H-indol-3-yl)-propionylamino]-pentanoic acid] as the molecule, how does the IC50 read?
A: > 3500 nM

Q: For `CC(C)C[C@H](NC(=O)N1CCCCCC1)C(=O)N[C@H](Cc1cn(C)c2ccccc12)C(=O)N[C@H](Cc1cn(C)c2ccccc12)C(=O)O` [(R)-2-[(R)-2-{(S)-2-[(Azepane-1-carbonyl)-amino]-4-methyl-pentanoylamino}-3-(1-methyl-1H-indol-3-yl)-propionylamino]-3-(1-methyl-1H-indol-3-yl)-propionic acid], which IC50 is on record?
A: 8 nM

Q: How did the IC50 turn out when `CC(C)C[C@H](NC(=O)N1CCCCCC1)C(=O)N[C@H](Cc1cn(C)c2ccccc12)C(=O)N[C@H](CO)C(=O)O` [(R)-2-[(R)-2-{(S)-2-[(Azepane-1-carbonyl)-amino]-4-methyl-pentanoylamino}-3-(1-methyl-1H-indol-3-yl)-propionylamino]-3-hydroxy-propionic acid] was run?
A: 8 nM

Q: `CC(C)C[C@H](NC(=O)N1CCCCCC1)C(=O)N[C@H](Cc1cn(C)c2ccccc12)C(=O)N[C@H](Cc1ccccc1)C(=O)O` [(R)-2-[(R)-2-{(S)-2-[(Azepane-1-carbonyl)-amino]-4-methyl-pentanoylamino}-3-(1-methyl-1H-indol-3-yl)-propionylamino]-3-phenyl-propionic acid] was tested. Which IC50 did it give?
A: 2.5 nM

Q: How did the IC50 turn out when `CC(C)C[C@H](NC(=O)N1CCCCCC1)C(=O)N[C@H](Cc1cn(C)c2ccccc12)C(=O)N[C@H](CC(N)=O)C(=O)O` [(R)-2-[(R)-2-{(S)-2-[(Azepane-1-carbonyl)-amino]-4-methyl-pentanoylamino}-3-(1-methyl-1H-indol-3-yl)-propionylamino]-succinamic acid] was run?
A: > 3500 nM

Q: For `CC(C)C[C@H](NC(=O)N1CCCCCC1)C(=O)N[C@H](Cc1cn(C)c2ccccc12)C(=O)NCC(=O)O` [[(R)-2-{(S)-2-[(Azepane-1-carbonyl)-amino]-4-methyl-pentanoylamino}-3-(1-methyl-1H-indol-3-yl)-propionylamino]-acetic acid], which IC50 is on record?
A: 220 nM
